“Also recorded” adds a separate entry of the source.
How the values were obtained:
[1] = Conversion of Allopole to Allopole-A in buffers ± GSH (LC-MS); assay type: physicochemical; details: room temperature, 1 h; for Compounds detected / Compounds detected, % of total / Compounds detected, pk area: 100 µM Allopole
Protocol: High-performance liquid chromatography (HPLC)/high-resolution mass spectrometry was used to determine the products derived from investigational drugs incubated under various conditions by measuring their exact masses. Thereafter, 20 μL aliquots of several drug preparations in either DMSO or aqueous reaction solutions were diluted 2:1 in ethanol, followed by centrifugation at 15,000 × g for 5 min. The supernatant was then injected on a Thermo Vanquish liquid chromatograph coupled to a Thermo Q Exactive Orbitrap mass spectrometer (Thermo Fisher Scientific). The conditions for the analysis are listed as follows.
The analytes were identified using the Dmass between the predicted and measured exact monoisotopic mass for the protonated molecular ions applied to the empirical formula algorithm in the Qual Browser application of the Xcalibur software (Themo Scientific). Selected ions from the base peak chromatogram were extracted for integration of peak areas. The relative amounts of each analyte to the sum total were calculated to estimate conversion of and prodrug under the specific conditions to breakdown products.
Table S2. Conversion of Allopole to Allopole-A under various buffer conditions, room
Buffers* Compounds detected
Allopole-A Allopole-A (-S) Allopole (-Cl) Allopole
* Buffer #1: 20 mM Tris (pH 8.0), 50 mM NaCl, 1 mM EDTA, 1% DMSO
Buffer #2: 1 x PBS (pH 7.4), 1 mM EDTA, 1% DMSO
Buffer #3: 20 mM HEPES (pH 7.0), 50 mM NaCl, 1 mM EDTA, 1% DMSO
Samples were prepared by incubating 100 µM of Allopole in the indicated buffer conditions in the
absence or presence of 5 mM GSH for 1 h at room temperature. Note that in the absence of GSH,

L363 cells = assay: MTS cell viability assay, L363 cells; assay type: cell-based; details: 48 h treatment
5-HT2B = 5-HT2B (Homo sapiens, UniProt P41595); assay: PDSP off-target binding screen; details: for inhibition at 10 µM: read-out: Primary screen AVE(%inhib)±SD
Chain of 5-HT2B (P41595 whole entry): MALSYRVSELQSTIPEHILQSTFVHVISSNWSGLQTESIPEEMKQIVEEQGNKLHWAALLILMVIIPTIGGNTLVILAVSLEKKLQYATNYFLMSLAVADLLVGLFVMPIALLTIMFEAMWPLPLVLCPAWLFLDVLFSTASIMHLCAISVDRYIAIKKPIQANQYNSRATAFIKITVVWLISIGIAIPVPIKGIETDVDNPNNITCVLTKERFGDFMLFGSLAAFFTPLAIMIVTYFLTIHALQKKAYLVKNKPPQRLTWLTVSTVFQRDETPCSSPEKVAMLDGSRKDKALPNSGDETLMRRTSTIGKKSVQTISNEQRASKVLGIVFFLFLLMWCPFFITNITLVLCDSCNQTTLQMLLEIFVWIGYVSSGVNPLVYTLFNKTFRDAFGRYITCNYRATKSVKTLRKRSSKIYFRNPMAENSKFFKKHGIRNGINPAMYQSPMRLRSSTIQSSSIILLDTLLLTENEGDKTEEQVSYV

[2] = test system: 45 receptors and channels; assay: PDSP off-target screen (whole panel); assay type: binding, human
Description: (§1) PDSP no. Compound Interactions (Ki, µM)
(§2) 60477 Allopole-A None observed.
(§3) trigger a secondary screen at that receptor.

Alpha2A = target: T1, Alpha2A (Homo sapiens, UniProt P08913); assay: PDSP off-target binding screen; details: for inhibition at 10 µM: read-out: Primary screen AVE(%inhib)±SD; for Ki: read-out: Secondary screen Ki
T1 sequence (P08913 1-465): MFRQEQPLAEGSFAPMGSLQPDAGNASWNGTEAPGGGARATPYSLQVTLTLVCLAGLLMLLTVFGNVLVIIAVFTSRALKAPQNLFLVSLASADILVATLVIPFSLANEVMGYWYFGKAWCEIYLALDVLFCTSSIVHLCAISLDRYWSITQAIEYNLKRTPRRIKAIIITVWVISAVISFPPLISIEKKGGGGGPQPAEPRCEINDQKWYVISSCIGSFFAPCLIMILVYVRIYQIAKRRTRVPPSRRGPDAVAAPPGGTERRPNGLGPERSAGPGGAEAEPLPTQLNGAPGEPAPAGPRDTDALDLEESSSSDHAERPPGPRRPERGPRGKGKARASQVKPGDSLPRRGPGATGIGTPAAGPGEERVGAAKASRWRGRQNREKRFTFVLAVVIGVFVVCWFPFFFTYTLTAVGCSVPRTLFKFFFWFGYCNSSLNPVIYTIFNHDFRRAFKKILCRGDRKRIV
Description: as §1, §2, §3

Alpha1A = target: T2, Alpha1A (Homo sapiens, UniProt P35348); assay: PDSP off-target binding screen; details: for inhibition at 10 µM: read-out: Primary screen AVE(%inhib)±SD; for Ki: read-out: Secondary screen Ki
T2 sequence (P35348 1-466): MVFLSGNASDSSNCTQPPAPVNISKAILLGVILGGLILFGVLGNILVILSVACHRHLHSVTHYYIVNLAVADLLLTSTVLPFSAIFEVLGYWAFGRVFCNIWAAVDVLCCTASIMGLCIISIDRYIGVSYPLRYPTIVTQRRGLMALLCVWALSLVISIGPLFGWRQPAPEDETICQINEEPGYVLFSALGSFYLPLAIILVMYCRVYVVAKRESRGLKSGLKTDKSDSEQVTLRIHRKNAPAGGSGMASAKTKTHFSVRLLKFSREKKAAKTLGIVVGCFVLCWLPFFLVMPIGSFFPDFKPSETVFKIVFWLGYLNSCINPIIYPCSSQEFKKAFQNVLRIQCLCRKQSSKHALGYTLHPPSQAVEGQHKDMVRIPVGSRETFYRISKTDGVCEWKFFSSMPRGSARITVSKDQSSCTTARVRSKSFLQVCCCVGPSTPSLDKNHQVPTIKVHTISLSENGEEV
Description: as §1, §2, §3

Beta2 = Beta2 (Homo sapiens, UniProt P07550); assay: PDSP off-target binding screen; details: for inhibition at 10 µM: read-out: Primary screen AVE(%inhib)±SD; for Ki: read-out: Secondary screen Ki
Chain of Beta2 (P07550 whole entry): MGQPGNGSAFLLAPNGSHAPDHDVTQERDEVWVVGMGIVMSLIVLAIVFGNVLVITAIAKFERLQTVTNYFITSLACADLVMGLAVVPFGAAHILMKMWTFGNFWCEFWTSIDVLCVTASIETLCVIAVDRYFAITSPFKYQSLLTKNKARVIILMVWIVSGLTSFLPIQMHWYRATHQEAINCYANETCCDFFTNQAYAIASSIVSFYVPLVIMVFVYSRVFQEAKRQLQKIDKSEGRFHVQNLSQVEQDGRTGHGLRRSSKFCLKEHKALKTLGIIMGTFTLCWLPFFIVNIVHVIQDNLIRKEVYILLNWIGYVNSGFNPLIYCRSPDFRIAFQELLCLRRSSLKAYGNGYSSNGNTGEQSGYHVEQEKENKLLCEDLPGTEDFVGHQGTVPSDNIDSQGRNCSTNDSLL
Description: as §1, §2, §3

M4 = target: T3, M4 (Homo sapiens, UniProt P08173); assay: PDSP off-target binding screen; details: for inhibition at 10 µM: read-out: Primary screen AVE(%inhib)±SD; for Ki: read-out: Secondary screen Ki
T3 sequence (P08173 1-479): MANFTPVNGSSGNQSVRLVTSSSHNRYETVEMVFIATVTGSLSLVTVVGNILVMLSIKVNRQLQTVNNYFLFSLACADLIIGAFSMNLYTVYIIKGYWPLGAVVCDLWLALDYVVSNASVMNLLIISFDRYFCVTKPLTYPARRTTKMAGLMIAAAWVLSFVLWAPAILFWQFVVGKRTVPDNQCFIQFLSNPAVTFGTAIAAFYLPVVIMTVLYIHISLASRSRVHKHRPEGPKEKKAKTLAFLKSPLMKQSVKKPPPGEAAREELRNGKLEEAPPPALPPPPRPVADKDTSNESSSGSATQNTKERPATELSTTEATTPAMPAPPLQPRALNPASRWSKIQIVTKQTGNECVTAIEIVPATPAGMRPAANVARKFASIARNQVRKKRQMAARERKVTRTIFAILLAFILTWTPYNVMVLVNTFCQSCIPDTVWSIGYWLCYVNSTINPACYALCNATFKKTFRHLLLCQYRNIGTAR
Description: as §1, §2, §3

MOR = MOR (Homo sapiens, UniProt P35372); assay: PDSP off-target binding screen; details: for inhibition at 10 µM: read-out: Primary screen AVE(%inhib)±SD; for Ki: read-out: Secondary screen Ki
Chain of MOR (P35372 whole entry): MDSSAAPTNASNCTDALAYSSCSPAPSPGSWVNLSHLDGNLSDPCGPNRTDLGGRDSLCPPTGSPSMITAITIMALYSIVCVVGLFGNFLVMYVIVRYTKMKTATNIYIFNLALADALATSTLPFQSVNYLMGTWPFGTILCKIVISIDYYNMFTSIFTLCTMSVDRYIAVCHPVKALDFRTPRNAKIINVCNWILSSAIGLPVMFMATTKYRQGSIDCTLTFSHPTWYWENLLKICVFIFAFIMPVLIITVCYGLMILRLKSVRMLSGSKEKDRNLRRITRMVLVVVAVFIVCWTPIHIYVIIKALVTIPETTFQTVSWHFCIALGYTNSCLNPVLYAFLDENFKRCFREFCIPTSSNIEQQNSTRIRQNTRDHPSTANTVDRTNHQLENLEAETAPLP
Description: as §1, §2, §3

[3] = Buffer #1 (20 mM Tris pH 8.0), no GSH
[4] = Buffer #2 (1 x PBS pH 7.4), no GSH
[5] = Buffer #3 (20 mM HEPES pH 7.0), no GSH

Row | Structure (SMILES) | Compounds detected [1, 3] [µmol/L] | Compounds detected, % of total [1, 3] [%] | Compounds detected, pk area [1, 3] | Compounds detected ([1]; Buffer #1 + 5 mM GSH) [µmol/L] | Compounds detected, % of total ([1]; Buffer #1 + 5 mM GSH) [%] | Compounds detected, pk area ([1]; Buffer #1 + 5 mM GSH) | Compounds detected [1, 4] [µmol/L] | Compounds detected, % of total [1, 4] [%] | Compounds detected, pk area [1, 4] | Compounds detected ([1]; Buffer #2 + 5 mM GSH) [µmol/L] | Compounds detected, % of total ([1]; Buffer #2 + 5 mM GSH) [%] | Compounds detected, pk area ([1]; Buffer #2 + 5 mM GSH) | Compounds detected [1, 5] [µmol/L] | Compounds detected, % of total [1, 5] [%] | Compounds detected, pk area [1, 5] | Compounds detected ([1]; Buffer #3 + 5 mM GSH) [µmol/L] | Compounds detected, % of total ([1]; Buffer #3 + 5 mM GSH) [%] | Compounds detected, pk area ([1]; Buffer #3 + 5 mM GSH) | Ki (5-HT2B) [µM] | inhibition at 10 µM (5-HT2B) [%] | other results
1 | O=c1c2sc(Cl)cc2n2c(=S)[nH]nc2n1CC1CC1 [Allopole-A] | 1.3 | 1.3 | 9.61E+06 | 95.4 | 95.4 | 1.38E+09 | 0.8 | 0.8 | 4.90E+06 | 77.9 | 77.9 | 5.81E+08 | 1.9 | 1.9 | 1.56E+06 | 66.9 | 66.9 | 1.89E+08 | > 10 | -17.7 ± 11.2 | Cell efficacy (GI50) Mean ± SD (L363 cells): failed to induce any significant antiproliferation effect; Cell efficacy (GI50) Mean ± SD (L363 cells; listed as 19): N. S.; Interactions (Ki, µM), summary of PDSP screen (in words) [2]: None observed; also recorded: no interactions; inhibition at 10 µM (Alpha2A): -6.3 ± 7.9%; Ki (Alpha2A): > 10 µM; inhibition at 10 µM (Alpha1A): -9.4 ± 18%; Ki (Alpha1A): > 10 µM; inhibition at 10 µM (Beta2): -2.1 ± 19.7%; Ki (Beta2): > 10 µM; inhibition at 10 µM (M4): -8.8 ± 4.8%; Ki (M4): > 10 µM; inhibition at 10 µM (MOR): 30.8 ± 47.5%; Ki (MOR): > 10 µM
2 | Cn1cnc([N+](=O)[O-])c1Sc1nnc2n(CC3CC3)c(=O)c3sc(Cl)cc3n12 [Allopole] | 97.9 | 97.9 | 7.45E+08 | 0.1 | 0.1 | 8.76E+05 | 97.6 | 97.6 | 6.28E+08 | 0.0 | 0.0 | 2.41E+03 | 93.1 | 93.1 | 7.80E+07 | 0.0 | 0.0 | 9.35E+04 | > 10 | -0.5 ± 5 | Unmasking of the prodrug by GSH (in words) ([1]; 5 mM GSH): completely unmask; Stability in buffer (in words) ([1]; absence of GSH): remains stable; GI50 (L363 cells; Homo sapiens, L-363, 48 h, read-out: Cell efficacy (GI50) Mean ± SD): 4.1 µM; Interactions (Ki, µM), summary of PDSP screen (in words) [2]: only two weak µM interactions; inhibition at 10 µM (Alpha2A): 9.4 ± 4.6%; Ki (Alpha2A): > 10 µM; inhibition at 10 µM (Alpha1A): 40.6 ± 10.5%; Ki (Alpha1A): > 10 µM; inhibition at 10 µM (Beta2): 0.1 ± 10.6%; Ki (Beta2): > 10 µM; inhibition at 10 µM (M4): -8.7 ± 9.5%; Ki (M4): > 10 µM; inhibition at 10 µM (MOR): 40.6 ± 51%; Ki (MOR): > 10 µM
